From US20230348424A1, “HETEROCYCLIC COMPOUNDS AND METHODS OF USE” (Schrödinger, Inc., priority 2022, published 2023)

Experiments:
[1] = biological target: SOS1:KRAS (G12C) interaction (Homo sapiens (Human), UniProt Q07889); test: SOS1 KRas(G12C) FRET Assay; format: binding; details: 0.5 nM His10-SOS1 (res. 564-1049), 2.5 nM GST-KRAS G12C (res. 1-169), 2 hrs at RT
Procedure, shortened: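 GST-KRAS G12C (res. 1-169) at 2.5 nM and His10-SOS1 (res. 564-1049) at 0.5 nM, final, in PBS with 0.1% BSA, 5 mM MgCl2, 100 mM KF, 5 mM DTT and 0.5% DMSO. After 2 h at RT, FRET read at 665/615 nm and normalized to DMSO and no-SOS1 controls. IC50 by non-linear regression.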

human SOS1 = human SOS1 (Homo sapiens (Human), UniProt Q07889); test: Surface Plasmon Resonance (SPR) SOS1 Binding Assay; details: biotinylated SOS1 (res. 564-1049), Biacore 8K, 25° C., kinetic or steady state fit, 1:1 binding; read-out: hSOS1 KD
Procedure, shortened: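 Biotinylated Avi-tagged human SOS1 (res. 564-1049) captured on streptavidin chip (~3,000 RU); compounds injected 60 s, dissociation 600 s, at 25° C in Tris pH 8.0 buffer with 5% DMSO. Reference- and blank-subtracted; KD from kinetic or steady-state 1:1 binding fit.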

Compound	IC50 [1] [nM]	Kd (human SOS1) [nM]
CO[C@H]1CN(C)CC[C@H]1Nc1cc(=O)n(C2(C(F)F)CC2)cc1C(=O)N[C@H](C)c1cccc(C(F)F)c1F [Example 153, N-((R)-1-(3-(difluoromethyl)-2-fluorophenyl)ethyl)-1-(1-(difluoromethyl)cyclopropyl)-4-(((3S,4R)-3-methoxy-1-methylpiperidin-4-yl)amino)-6-oxo-1,6-dihydropyridine-3-carboxamide]	58.4	25
CO[C@@H]1CN(C)CC[C@@H]1Nc1cc(=O)n(C2(C(F)F)CC2)cc1C(=O)N[C@H](C)c1cccc(C(F)F)c1F [Example 154, N-((R)-1-(3-(difluoromethyl)-2-fluorophenyl)ethyl)-1-(1-(difluoromethyl)cyclopropyl)-4-(((3R,4S)-3-methoxy-1-methylpiperidin-4-yl)amino)-6-oxo-1,6-dihydropyridine-3-carboxamide]	37.6	23
C[C@@H](NC(=O)c1cn(C23CC(C2)C3)c(=O)cc1N[C@H]1CN2CCC1CC2)c1cccc(C(F)F)c1F [Example 155, 1-(bicyclo[1.1.1]pentan-1-yl)-N-((R)-1-(3-(difluoromethyl)-2-fluorophenyl)ethyl)-6-oxo-4-(((R)-quinuclidin-3-yl)amino)-1,6-dihydropyridine-3-carboxamide]	21.2	11
C[C@@H](NC(=O)c1cn(C23CC(C2)C3)c(=O)cc1N[C@@H]1CN2CCC1CC2)c1cccc(C(F)F)c1F [Example 156, 1-(bicyclo[1.1.1]pentan-1-yl)-N-((R)-1-(3-(difluoromethyl)-2-fluorophenyl)ethyl)-6-oxo-4-(((S)-quinuclidin-3-yl)amino)-1,6-dihydropyridine-3-carboxamide]	12.4	3
N-((R)-1-(2-fluoro-3- (trifluoromethyl)phenyl)et hyl)-4-(((1R,5S,6s)-3- methyl-3- azabicyclo[3.1.0]hexan-6- yl)amino)-6-oxo-1-(1- (trifluoromethyl)cycloprop yl)-1,6-dihydropyridine-3- carboxamide [Example 120]	35.7	24
N-((R)-1-(3-(difluoromethyl)-2-fluorophenyl)ethyl)-1-(1- (difluoromethyl)cyclopropyl)-4-(((1R,5S,6s)-3-methyl-3-azabicyclo[3.1.0]hexan-6-yl)amino)-6- oxo-1,6-dihydropyridine-3-carboxamide [Example 55]	23.6	12
